In test [1] the test system is Rat cortical neurons. The test is described as follows: Glutamate induced neuronal cell death of primary cortical cultures (LDH release). The settings on record: for effect on normal cell death: without glutamate. The class given is cell-based, Wistar rat. How it is done:
Rat cortical neurons were cultured by modification of the methods of Dichter (1973) Brain Res 149, p279-293 and Durkin et al (1996) J. Neurochem 66, p951-962. A female Wistar rat (Janvier, Le Genest-St-Isle, France: ref RJ WAF151) of 17 days gestation was killed by cervical disclocation, the foetuses removed on embryonoic day 17 and brains removed and placed in ice-cold calcium/magnesium free Hanks balanced salt solution (HBSS: Gibco Life Technologies, Cergy-Pontoise, France: ref 14170-088 batch 302790). Each cortex was dissected and meninges were carefully removed.
The cortical neurons were dissociated by trypsinization for 5 minutes at 37° C. (trypsin: 0.5 mg/ml: Difco, LPCR, Strasbourg: ref 0152-14 batch 128856JC) and the reaction stopped by addition of HBSS containing calcium and magnesium (HBSS+ Gibco ref 24020-091; batch 3010598) with 10% of fetal bovine serum FBS; Gibco; ref 1027-098; batch 40Q1681K and 1 mg/ml DNase I (Boehringer Mannheim, Meylan, France; ref 1284938; batch 14880300).
The suspension was triturated with a 10 ml pipette (stripette Costar, Dutscher, Brumath, France) and was added in a centrifuge tube (Tube 50 ml Corning, Dutscher) containing 20 ml HBSS^− with 3.5% of BSA (Sigma, L'Isle D'Abeau Chesnes, ref. A6003, batch 29H7606) and centrifuged at low speed (150×g) for 10 min (apparatus Sigma 2-15, Bioblock, Illkirch, France).
The cells were resuspended in Dulbecco's Modified Eagle Medium (DMEM; Gibco; ref. 41965-039; batch 3032129), containing 20% FBS. Viable cells were quantified and plated at 35,000/well in 96 well plates (Nunclon, Gibco) previously coated with poly-L-lysine (0.01 mg/ml, France; ref. P5899; batch 28H8504). Cells were allowed to adhere 2 h and maintained in a humidified incubator at 37° C. in 5% CO2-95% air atmosphere.
Culture medium was then changed to a medium consisting of DMEM, 10% heat-inactivated FBS, 10% heat-inactived horse serum (Gibco, ref. 16505-080; batch 3030347) and 1% L-Glutamine (Gibco, ref. 25030-024; batch 3031499).
Since the cultures were mixed populations containing both neurons and glial cells, to minimize glial growth, the cultures were treated for 2 days with 15 μg/ml of 5-fluoro-2′-deoxyuridine (Sigma; ref. F8791; batch 97H4048) and 35 μg/ml of uridine (Sigma, ref. U3003; batch 18H11965) on day 4 of culture.
Following exposure to mitotic inhibitors, one-half of the medium was removed and replaced with growth medium consisting of 89% DMEM, 10% horse serum and 1% L-glutamine.
Glutamate toxicity experiments were performed after 13 days in culture (Glutamic acid; Sigma, ref. G6904; batch 18H11381).
On day 12, twenty-four hours before glutamate exposure, cultures were washed with DMEM and placed in medium DMEM/Ham12 with supplements but without estradiol.
The reference compounds, estradiol (Sigma, ref. E8875; batch 98H40953) and DHEA (Sigma, ref. D4000; batch 97H0301), and test compound were added at concentrations of 2, 10, 50 and 100 nM. Human FGF-basic (Tebu, Le Perray-en-Yvelines, France; ref. 100-18B; batch 107R0806 E118) was included as an additional reference and was tested at 5, 10 and 20 ng/ml. All compounds were dissolved at 10 mM in ethanol 100% (LPCR, ref. 20821467; batch J109), diluted 10,000 fold in DMEM and stocked at −20° C.
The effect of the test molecule on survival of cultured neurones was investigated alone and in intoxication conditions. The effect of the ethanol was also tested at the highest concentration used for dilution of the test molecules (100 nM=0.001% ethanol).
On day 13, cultures were exposed to glutamate 0.50, 100, 150, 200, 250, 300, 400 and 500 μM for 10 min at 37° C. in DMEM/hamF12 with supplement. The effects of the 2 reference compounds and the test compound was investigated in the presence of glutamate.
After the incubation period, the cultures were washed with DMEM and placed in DMEM/Ham12 with supplement either in the absence or presence of the compound to evaluate their post intoxication effects. […]
In general terms: Release of lactate dehydrogenase indicates damage to the cell membrane.

Test [2] concerns CA1 pyramidal cell layer of organotypic hippocampal slice cultures. The test is described as follows: Hypoxic challenge of organotypic hippocampal slice cultures (PI fluorescence). As to conditions: 180 min hypoxia, 24 h recovery, hypoxia control 27.6±3.7%. The class given is cell-based, Wistar rat. How it is done: Organotypic hippocampal slice cultures were prepared using the basic method of Pringle et al (1997) modified as follows:
Wistar rat pups (8-11 days old) were decapitated and the hippocampus rapidly dissected into ice-cold Goy's balanced salt solution supplemented with 4.5 mg/ml glucose. Slices were separated and plated into Millicell CM culture inserts (4 per well) and maintained at 37° C./5% CO2 for 14 days. Maintenance medium consisted of 25% heat-inactivated horse serum, 25% Hank's balanced salt solution (HBSS) and 50% minimum essential medium with added Earle's salts (MEM) supplemented with 1 mM glutamine and 4.5 mg/ml glucose.
Experimental hypoxia was performed as described previously (Pringle et al., (1996) Stroke 27, p2124-2130, (1997) Brain Research 755-46). Briefly, cultures were transferred to serum free medium (SFM—75% MEM, 25% HBSS supplemented with 1 mM glutamine and 4.5 mg/ml glucose) containing 5 μg/ml of the fluorescent exclusion dye propidium iodide (PI). Cultures were allowed to equilibrate in SFM for 60 minutes prior to imaging. PI fluorescence was detected using a standard Leica inverted microscope fitted with a rhodamine filter set (Leica N2). Any cultures in which PI fluorescence was detected at this stage were excluded from further study. Hypoxia was induced by transferring cultures to SFM (+PI) which had been saturated with 95% N2/5% CO2. Culture plates (without lids) were then sealed into an airtight chamber in which the atmosphere was saturated with 95% N2/5% CO2 by continuously blowing through gas at 1000 ml/min for ten minutes before being sealed and placed in the incubator for 170 mins (total time of hypoxia was therefore 180 mins). At the end of the hypoxia period cultures were returned to normoxic SFM containing PI and placed back in the incubator for 24 hours.
Neuronal damage was assessed as described previously (Pringle et al., 1996, 1997) using NIH Image 1.60 running on an Apple IIsi computer. Images were captured using a COHU monochrome camera and saved onto optical disk for offline analysis using NIH image. Light transmission images were captured prior to the addition of drugs, and PI fluorescence images recorded at the end of the 24 hour post-hypoxia recovery period. The areas of the CA1, CA3 and dentate gyrus (DG) cell layers were determined from the transmission image. The area of PI fluorescence in each of the cell layers was measured using the density slice function within NIH Image, and neuronal damage expressed as the percentage of the regional area in which PI fluorescence was detected above background.
Steroid compounds were prepared by making an initial 1 mg/ml solution in ethanol and further diluting down in SFM. Compounds were included in the cultures for 45 minutes prior to hypoxia, during the hypoxic episode and during the post-hypoxic recovery period. Control experiments consisted of cultures treated with vehicle alone.

The subject of test [3] is estrogenic activity. As to conditions: cited from earlier work.
In test [4] the test system is NMDA receptors. As to conditions: cited from earlier work.

On to `C[C@]12CC[C@H](O)CC1=CC[C@@H]1[C@@H]2CC[C@]2(C)C(=O)CC[C@@H]12` [DHEA], for which the “effect on normal cell death” value in test [1] (10 nM) and in test [1] (50 nM) was “protect significantly” in each case. The “protection of cortical neurones from glutamate neurotoxicity” value in test [1] (doses of 0, 50 and 100 nM, glutamate 200 μM) was “failing to protect”.

For `C[C@]12CC[C@H](O)CC1=C[C@@H](O)[C@@H]1[C@@H]2CC[C@]2(C)C(=O)CC[C@@H]12` [7α-hydroxy-DHEA], the “neuronal damage: PI fluorescence as % of CA1” value (“neuronal damage … as % of CA1” below) in test [2] (10 nM) is recorded as 1.1±0.9%. The “neuronal death in CA1” value in test [2] (concentration not given) stood at 4.3±1.3%. Moreover, the “effect on normal cell death” value in test [1] (10 nM) is given as “significantly decreased normal cell death”.

Consider `C[C@]12CC[C@@H]3c4ccc(O)cc4C[C@@H](O)[C@H]3[C@@H]1CC[C@@H]2O` [7α-hydroxy-estradiol, Estra-1,3,5(10)-triene 3,7α,17β-triol], for which the “neuronal damage … as % of CA1” value in test [2] (1 nM) is listed as 21.5±11.3%; in test [2] (10 nM) it was 13.0±4.7%; in test [2] (100 nM), 5.9±2.1%. Also, the “estrogenic activity as fraction of that of estrone” value in test [3] is reported as 1/300.

Consider `CC(=O)[C@H]1CC[C@H]2[C@@H]3C(=O)C=C4C[C@@H](OS(=O)(=O)O)CC[C@]4(C)[C@H]3CC[C@]12C` [7-keto-pregnenolone sulphate], for which, in test [4], the “decrease of NMDA response” value is 12%.

With `CC(=O)[C@H]1CC[C@H]2[C@@H]3[C@H](O)C=C4C[C@@H](O)CC[C@]4(C)[C@H]3CC[C@]12C` [7α-hydroxy-pregnenolone], the “neuronal damage … as % of CA1” value in test [2] (100 nM) is 11.6±4.0%. Moreover, the “less cell death in presence of glutamate” value in test [1] (10 nM, glutamate 200 μM) is “up to 10%”.

Regarding 3α-hydroxy-5β-pregnan-20-one sulphate, the “decrease of NMDA response” value in test [4] is listed as 76%.

`C[C@]12CC[C@@H]3c4ccc(O)cc4CC[C@H]3[C@@H]1CC[C@@H]2O` [estradiol]: the “effect on cell death in glutamate toxicity assay (FIG. 3)” value in test [1] (primary cortical neurones) is recorded as “no effect”.

For the compound `CC12CCC3c4ccc(O)cc4CC(=O)C3C1CCC2O` (stereo not shown) [7-keto-estradiol], in test [3], the “estrogenic activity as fraction of that of estrone” value is on record as 1/300.

Source of the values: patent US20030092692A1, “Cytoprotective steroids (II)” (priority 2000, published 2003).
